Test results published in ChEMBL document CHEMBL1201862, “PubChem BioAssay data set” (2004).
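All cell lines were grown in 96-well plates and treated with compound for 48 hours. Abbreviation: GI50, concentration required for 50% inhibition of growth.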 Calls of active or inactive are those of the source. Rule as the data show it: active = GI50 up to about 1.1 µM and inactive = higher.

Tests used:
Assay in all cases: NCI-60 cell line screen, 48 h
SW-620 = test system: SW-620
ACHN = test system: ACHN
NCI-H23 = test system: NCI-H23
SK-MEL-2 = test system: SK-MEL-2
MOLT-4 = test system: MOLT-4
SF-295 = test system: SF-295
HCT-15 = test system: HCT-15
A549 = test system: A549
HL-60 = test system: HL-60
SK-MEL-5 = test system: SK-MEL-5
NCI-H226 = test system: NCI-H226
OVCAR-3 = test system: OVCAR-3
OVCAR-5 = test system: OVCAR-5
SF-268 = test system: SF-268
COLO 205 = test system: COLO 205
EKVX = test system: EKVX
NCI-H460 = test system: NCI-H460
Malme-3M = test system: Malme-3M
SF-539 = test system: SF-539

Compound	GI50 (SW-620)	GI50 (ACHN)	GI50 (NCI-H23)	GI50 (SK-MEL-2)	GI50 (MOLT-4)	GI50 (SF-295)	GI50 (HCT-15) [µM]	GI50 (A549)	GI50 (HL-60)	GI50 (SK-MEL-5)	GI50 (NCI-H226)	GI50 (OVCAR-3)	GI50 (OVCAR-5)	GI50 (SF-268)	GI50 (COLO 205)	GI50 (EKVX)	GI50 (NCI-H460)	GI50 (Malme-3M)	GI50 (SF-539)
O=C(c1cc(=O)c2ccc(O)cc2o1)c1ccc(Cl)cc1Cl	12.2 µM (inactive)	5.24 µM (inactive)	24 µM (inactive)	26 µM (inactive)	2.81 µM (inactive)	20.6 µM (inactive)	4.63	> 30.8 µM (inactive)	1.26 µM (inactive)	20.4 µM (inactive)	26.7 µM (inactive)	15.5 µM (inactive)	> 74.8 µM (inactive)	13.8 µM (inactive)	3.27 µM (inactive)	50.2 µM (inactive)	6.01 µM (inactive)	34.4 µM (inactive)	
Cc1nc2c(n1C(C)(C)C)C(=O)c1ccccc1C2=O	> 100 µM (inactive)	48.6 µM (inactive)	37.8 µM (inactive)	80.4 µM (inactive)	49 µM (inactive)	87.3 µM (inactive)	56.6	92 µM (inactive)	46.2 µM (inactive)	38.9 µM (inactive)	67.9 µM (inactive)	38.6 µM (inactive)		54.5 µM (inactive)	64.1 µM (inactive)	> 100 µM (inactive)	36.7 µM (inactive)	44.6 µM (inactive)	> 100 µM (inactive)
CC1=CC(C)(c2c[nH]c3ccccc23)CC(C)(C)c2c1[nH]c1ccccc21 (centres undefined)	16.9 µM (inactive)	17.2 µM (inactive)	14.4 µM (inactive)		6.93 µM (inactive)	14.5 µM (inactive)		14 µM (inactive)	6.46 µM (inactive)		18.6 µM (inactive)	14 µM (inactive)	18 µM (inactive)	25.1 µM (inactive)		15.6 µM (inactive)	17 µM (inactive)	16.6 µM (inactive)	43.2 µM (inactive)
NC(=O)C12CC3CC(CC(Br)(C3)C1)C2	> 100 µM (inactive)	> 100 µM (inactive)	> 100 µM (inactive)		> 100 µM (inactive)	> 100 µM (inactive)	> 100	> 100 µM (inactive)	> 100 µM (inactive)	> 100 µM (inactive)		> 100 µM (inactive)	> 100 µM (inactive)	> 100 µM (inactive)		> 100 µM (inactive)	> 100 µM (inactive)		> 100 µM (inactive)
O=c1[nH]c(-c2ccc(-c3nc4cc([N+](=O)[O-])ccc4c(=O)[nH]3)cc2)nc2cc([N+](=O)[O-])ccc12	> 100 µM (inactive)	> 100 µM (inactive)	> 100 µM (inactive)	> 100 µM (inactive)	> 100 µM (inactive)	> 100 µM (inactive)	> 100	> 100 µM (inactive)	> 100 µM (inactive)	> 100 µM (inactive)	> 100 µM (inactive)	> 100 µM (inactive)	> 100 µM (inactive)		> 100 µM (inactive)	> 100 µM (inactive)	> 100 µM (inactive)	> 100 µM (inactive)	> 100 µM (inactive)
COc1ccc(/C=C(\NC(=O)c2ccccc2)c2nc3ccccc3[nH]2)cc1	46.6 µM (inactive)	42.6 µM (inactive)	19.1 µM (inactive)	21.1 µM (inactive)	24.5 µM (inactive)		48.2	41.6 µM (inactive)		14.8 µM (inactive)	72.9 µM (inactive)	34.5 µM (inactive)	29 µM (inactive)	37 µM (inactive)	24 µM (inactive)	35.9 µM (inactive)	34.2 µM (inactive)	36.3 µM (inactive)	39.1 µM (inactive)
O=C(OCc1ccccc1)N1N=NC2C1C1CC(OCc3ccccc3)(OCc3ccccc3)C2O1 (centres undefined)	> 100 µM (inactive)	> 100 µM (inactive)	> 100 µM (inactive)	> 100 µM (inactive)	> 100 µM (inactive)	> 100 µM (inactive)	> 100	> 100 µM (inactive)	> 100 µM (inactive)	> 100 µM (inactive)	> 100 µM (inactive)	> 100 µM (inactive)	> 100 µM (inactive)	> 100 µM (inactive)	> 100 µM (inactive)		> 100 µM (inactive)	> 100 µM (inactive)	> 100 µM (inactive)
COc1cc2cccc(/N=C/c3c(Br)ccc(OC)c3OC(C)C)c2cc1OC	32.4 µM (inactive)	70.3 µM (inactive)	50.1 µM (inactive)	> 100 µM (inactive)	28.3 µM (inactive)	53.6 µM (inactive)		82.4 µM (inactive)		55.7 µM (inactive)		33.7 µM (inactive)	> 100 µM (inactive)	36 µM (inactive)	> 100 µM (inactive)	> 100 µM (inactive)	> 100 µM (inactive)	74.5 µM (inactive)	50.6 µM (inactive)
Cc1cc(N(CCC#N)CCC#N)ccc1/C=N\c1ccc(C(=O)NN2C(=O)/C(=C/c3ccc(N(CCC#N)CCC#N)cc3)N=C2c2cc([N+](=O)[O-])ccc2Cl)cc1	> 100 µM (inactive)	53.8 µM (inactive)	> 100 µM (inactive)	> 100 µM (inactive)			51.8	> 100 µM (inactive)	61.1 µM (inactive)	55.3 µM (inactive)	> 100 µM (inactive)	> 100 µM (inactive)	> 100 µM (inactive)	> 100 µM (inactive)	> 100 µM (inactive)	> 100 µM (inactive)	> 100 µM (inactive)	> 100 µM (inactive)	> 100 µM (inactive)
C[C@]12CC/C(=N\OC(=O)Nc3ccccc3)C=C1CC[C@@H]1C2CC[C@@]2(C)C1CC[C@@H]2OC(=O)Nc1ccccc1 (some centres undefined)	> 100 µM (inactive)	99.3 µM (inactive)	73.3 µM (inactive)	> 100 µM (inactive)	> 100 µM (inactive)	47.9 µM (inactive)	3.3	> 100 µM (inactive)	8.79 µM (inactive)	23.1 µM (inactive)		> 100 µM (inactive)	> 100 µM (inactive)	> 100 µM (inactive)	> 100 µM (inactive)	> 100 µM (inactive)	> 100 µM (inactive)		> 100 µM (inactive)
CC(C)(C)CC(C)(C)c1cc2c(O)c(c1)Cc1cc(C(C)(C)CC(C)(C)C)cc(c1O)Cc1cc(C(C)(C)CC(C)(C)C)cc(c1O)Cc1cc(C(C)(C)CC(C)(C)C)cc(c1O)Cc1cc(C(C)(C)CC(C)(C)C)cc(c1O)Cc1cc(C(C)(C)CC(C)(C)C)cc(c1O)Cc1cc(C(C)(C)CC(C)(C)C)cc(c1O)Cc1cc(C(C)(C)CC(C)(C)C)cc(c1O)C2	> 100 µM (inactive)	> 100 µM (inactive)	> 100 µM (inactive)	> 100 µM (inactive)	> 100 µM (inactive)	> 100 µM (inactive)	> 100	> 100 µM (inactive)	> 100 µM (inactive)	> 100 µM (inactive)		> 100 µM (inactive)	> 100 µM (inactive)	> 100 µM (inactive)	> 100 µM (inactive)	> 100 µM (inactive)	> 100 µM (inactive)	> 100 µM (inactive)	> 100 µM (inactive)
O/N=C1/C(=C/c2ccccc2)CCCC1C(NO)c1ccccc1 (centres undefined)	> 100 µM (inactive)	68.4 µM (inactive)	59.2 µM (inactive)	> 100 µM (inactive)	26.4 µM (inactive)	78.3 µM (inactive)	> 100	40.1 µM (inactive)	2.29 µM (inactive)			> 100 µM (inactive)	> 100 µM (inactive)	55.7 µM (inactive)	> 100 µM (inactive)	61.9 µM (inactive)	79.6 µM (inactive)	44.2 µM (inactive)	> 100 µM (inactive)
COc1cc(Nc2nc3cc(C)ccc3nc2-c2ccccc2)cc(OC)c1OC	58.1 µM (inactive)	26.7 µM (inactive)	22.8 µM (inactive)	23 µM (inactive)	18.3 µM (inactive)	20.9 µM (inactive)	15.5	29.8 µM (inactive)	22.5 µM (inactive)	19.2 µM (inactive)		18.5 µM (inactive)	> 100 µM (inactive)	11.2 µM (inactive)	20.2 µM (inactive)	20.7 µM (inactive)	15.8 µM (inactive)	29.6 µM (inactive)	
CC(C)[C@H]1CO[C@]2(C)[C@@H]3CN(Cc4ccccc4)C[C@@H]3C(=O)N12	> 100 µM (inactive)	> 100 µM (inactive)	> 100 µM (inactive)	> 100 µM (inactive)	> 100 µM (inactive)	> 100 µM (inactive)	> 100	> 100 µM (inactive)	> 100 µM (inactive)	> 100 µM (inactive)	> 100 µM (inactive)	> 100 µM (inactive)		> 100 µM (inactive)	> 100 µM (inactive)	> 100 µM (inactive)	> 100 µM (inactive)	> 100 µM (inactive)	> 100 µM (inactive)
CN(C)c1n/c(=N/c2cccc(Cl)c2)ss1	5.52 µM (inactive)	18.4 µM (inactive)	12.9 µM (inactive)	16.9 µM (inactive)	3.03 µM (inactive)	24.1 µM (inactive)	14.5	22.7 µM (inactive)	3.74 µM (inactive)	27.5 µM (inactive)	34.7 µM (inactive)		35 µM (inactive)	13.6 µM (inactive)		23.7 µM (inactive)	9.2 µM (inactive)	14.1 µM (inactive)	18.7 µM (inactive)
COc1ccc(C(=O)C2CCC(C(=O)O)C2)cc1 (centres undefined)	> 100 µM (inactive)	> 100 µM (inactive)	> 100 µM (inactive)	> 100 µM (inactive)	> 100 µM (inactive)	> 100 µM (inactive)	> 100	> 100 µM (inactive)	> 100 µM (inactive)	> 100 µM (inactive)	> 100 µM (inactive)	> 100 µM (inactive)	> 100 µM (inactive)		> 100 µM (inactive)	> 100 µM (inactive)	> 100 µM (inactive)	> 100 µM (inactive)	> 100 µM (inactive)
